Activity calls are given as the source filed them. The calls are words filed in the database; no cut-off is given here.

Results on five compounds are retold here after ChEMBL document CHEMBL3045772, “Amide derivatives of [6-acyl-2-benzothiazolinon-3-yl] acetic acids as potential analgesic and anti-inflammatory compounds” (Med Chem Res, 2010).

In data set [1] the test system is Mus musculus. Put plainly: Anti-inflammatory activity in Mus musculus Swiss albino (mouse) assessed as inhibition of carrageenan-induced edema at 100 mg/kg, po pretreated 60 min before carrageenan-challenge measured after 360 min. The format is functional. On the technique in general: In the carrageenan paw model, swelling and tenderness develop within hours.
Data set [2] has as its target T1, Polyunsaturated fatty acid 5-lipoxygenase (Homo sapiens) (UniProt P09917).
T1 sequence (whole entry): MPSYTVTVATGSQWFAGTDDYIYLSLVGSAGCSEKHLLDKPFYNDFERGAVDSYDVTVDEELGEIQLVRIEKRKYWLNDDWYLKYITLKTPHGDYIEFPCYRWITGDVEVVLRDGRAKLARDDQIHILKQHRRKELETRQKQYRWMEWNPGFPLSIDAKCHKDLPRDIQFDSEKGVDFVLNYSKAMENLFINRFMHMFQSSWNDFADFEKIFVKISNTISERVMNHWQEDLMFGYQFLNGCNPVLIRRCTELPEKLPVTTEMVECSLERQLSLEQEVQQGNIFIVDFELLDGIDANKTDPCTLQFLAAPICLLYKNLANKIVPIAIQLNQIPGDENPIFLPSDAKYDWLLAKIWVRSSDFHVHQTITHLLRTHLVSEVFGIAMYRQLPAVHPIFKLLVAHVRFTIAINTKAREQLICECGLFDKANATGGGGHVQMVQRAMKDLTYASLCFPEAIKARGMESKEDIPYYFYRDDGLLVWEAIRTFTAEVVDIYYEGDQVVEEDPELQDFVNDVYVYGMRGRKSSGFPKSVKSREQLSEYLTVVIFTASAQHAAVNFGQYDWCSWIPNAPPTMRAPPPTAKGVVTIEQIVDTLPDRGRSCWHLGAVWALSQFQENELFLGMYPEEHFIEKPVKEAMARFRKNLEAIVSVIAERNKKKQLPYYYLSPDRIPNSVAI
Description: Inhibition of 5-LOX (unknown origin) at 10 uM.

The subject of data set [3] is Mus musculus. Put plainly: Anti-inflammatory activity in Mus musculus Swiss albino (mouse) assessed as inhibition of carrageenan-induced edema at 100 mg/kg, po pretreated 60 min before carrageenan-challenge measured after 180 min. The format is functional.
The target of data set [4] is Prostaglandin G/H synthase 1 (Homo sapiens) (UniProt P23219). Particulars: Blood, at 10 µM.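 Further: human whole blood assay, COX-1 activity read out as TXB2 level by enzyme immunoassay.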
Prostaglandin G/H synthase 1 (Homo sapiens), sequence (P23219 whole entry): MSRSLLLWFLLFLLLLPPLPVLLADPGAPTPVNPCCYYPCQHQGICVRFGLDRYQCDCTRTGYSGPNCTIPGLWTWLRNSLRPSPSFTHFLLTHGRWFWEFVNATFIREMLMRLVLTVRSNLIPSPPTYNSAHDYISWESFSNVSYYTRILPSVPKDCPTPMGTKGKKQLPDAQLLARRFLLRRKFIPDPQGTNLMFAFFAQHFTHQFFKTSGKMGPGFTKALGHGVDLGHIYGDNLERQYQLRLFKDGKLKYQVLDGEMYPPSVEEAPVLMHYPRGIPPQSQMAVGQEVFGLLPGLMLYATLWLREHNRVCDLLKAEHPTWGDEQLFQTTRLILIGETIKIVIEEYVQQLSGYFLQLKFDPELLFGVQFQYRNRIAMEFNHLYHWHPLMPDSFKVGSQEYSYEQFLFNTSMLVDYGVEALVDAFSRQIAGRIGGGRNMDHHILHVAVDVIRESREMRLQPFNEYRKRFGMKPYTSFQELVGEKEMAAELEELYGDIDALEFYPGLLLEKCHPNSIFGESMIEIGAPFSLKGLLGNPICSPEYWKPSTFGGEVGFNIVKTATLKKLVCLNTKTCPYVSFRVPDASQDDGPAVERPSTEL
Description: Inhibition of cyclooxygenase-1 in Homo sapiens (human) whole blood assessed as TXB2 level at 10 uM by EIA
The subject of data set [5] is Mus musculus. Description: Analgesic activity in Mus musculus Swiss albino (mouse) assessed as inhibition of p-benzoquinone-induced writhing at 100 mg/kg, po pretreated 60 min before p-benzoquinone challenge. The format is functional. (In writhing tests, fewer writhes than in controls are read as antinociception.)
The target of data set [6] is T2, Prostaglandin G/H synthase 2 (Homo sapiens) (UniProt P35354).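 Further: human whole blood COX-2 activity read out as PGE2 level measured by enzyme immunoassay.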
T2 sequence (whole entry): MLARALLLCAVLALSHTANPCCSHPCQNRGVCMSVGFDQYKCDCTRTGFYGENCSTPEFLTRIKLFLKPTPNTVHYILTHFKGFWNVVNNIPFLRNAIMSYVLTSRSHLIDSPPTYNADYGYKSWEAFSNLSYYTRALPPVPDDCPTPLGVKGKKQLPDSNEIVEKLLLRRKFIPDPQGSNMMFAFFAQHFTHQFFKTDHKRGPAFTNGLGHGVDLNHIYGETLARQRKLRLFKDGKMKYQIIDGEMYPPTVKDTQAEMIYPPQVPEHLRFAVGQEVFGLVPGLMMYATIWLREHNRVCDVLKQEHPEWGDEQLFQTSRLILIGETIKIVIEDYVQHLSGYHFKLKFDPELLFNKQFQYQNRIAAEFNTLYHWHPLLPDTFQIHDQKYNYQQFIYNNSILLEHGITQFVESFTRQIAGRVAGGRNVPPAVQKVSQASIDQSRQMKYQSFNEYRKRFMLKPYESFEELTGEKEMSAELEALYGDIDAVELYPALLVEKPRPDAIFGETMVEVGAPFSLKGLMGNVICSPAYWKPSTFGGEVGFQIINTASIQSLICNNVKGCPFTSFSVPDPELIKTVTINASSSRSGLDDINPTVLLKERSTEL
Particulars: Blood, at 10 µM.
Description: Inhibition of cyclooxygenase-2 in Homo sapiens (human) whole blood assessed as PGE2 level at 10 uM by EIA

Data set [7] concerns Mus musculus. Description: Anti-inflammatory activity in Mus musculus Swiss albino (mouse) assessed as inhibition of carrageenan-induced edema at 100 mg/kg, po pretreated 60 min before carrageenan-challenge measured after 90 min. The format is functional.
In data set [8] the test system is Mus musculus. Put plainly: Anti-inflammatory activity in Mus musculus Swiss albino (mouse) assessed as inhibition of carrageenan-induced edema at 100 mg/kg, po pretreated 60 min before carrageenan-challenge measured after 270 min. The format is functional.
The test system of data set [9] is Mus musculus. Put plainly: Gastrointestinal toxicity in Mus musculus Swiss albino (mouse) assessed as ratio of ulcer at 100 mg/kg, po measured after 2 hr. The format is organism-based. On the set-up: dose 100 mg/kg, route oral. Conditions: in vivo.
The subject of data set [10] is Mus musculus. Description: Anti-inflammatory activity in Mus musculus Swiss albino (mouse) assessed as inhibition of carrageenan-induced edema at 10 mg/kg, po pretreated 60 min before carrageenan-challenge measured after 180 min. The format is functional.
In data set [11] the test system is Mus musculus. Put plainly: Anti-inflammatory activity in Mus musculus Swiss albino (mouse) assessed as inhibition of carrageenan-induced edema at 10 mg/kg, po pretreated 60 min before carrageenan-challenge measured after 90 min. The format is functional.
Data set [12] relates to Mus musculus. Description: Anti-inflammatory activity in Mus musculus Swiss albino (mouse) assessed as inhibition of carrageenan-induced edema at 10 mg/kg, po pretreated 60 min before carrageenan-challenge measured after 270 min. The format is functional.
For data set [13], the system named is Mus musculus. Description: Anti-inflammatory activity in Mus musculus Swiss albino (mouse) assessed as inhibition of carrageenan-induced edema at 10 mg/kg, po pretreated 60 min before carrageenan-challenge measured after 360 min. The format is functional.

A word on the inhibition: it is the share of the control response that was lost under treatment. As a reminder, the inhibition in vivo is the relative decrease from the control value, in per cent. Consider `O=C(Cn1c(=O)sc2cc(C(=O)c3ccccc3Cl)ccc21)Nc1ccccn1`, for which the inhibition result with Mus musculus [1], in the data set with Mus musculus [3], with Mus musculus [7] and in the data set with Mus musculus [8] was “inactive” each time. For the same compound, the inhibition in data set [2] came out at 3%; in data set [4] it was 45.2%; in data set [6] it was 28.9%. Moreover, the inhibition in vivo at 100 mg/kg in the data set with Mus musculus [5] is 15.5%. In addition, the Activity entry in the data set with Mus musculus [9] is recorded as “Non-toxic”.
As to `COc1ccc2c(c1)c(CC(=O)O)c(C)n2C(=O)c1ccc(Cl)cc1` [INDOMETHACIN], the inhibition in vivo at 10 mg/kg in the data set with Mus musculus [10] is 30.7%; in the data set with Mus musculus [11], 25.4%; in the data set on Mus musculus [12] it was 36.2%; in the data set on Mus musculus [13] it was 40.1%.
Turning to `Cc1cccc(NC(=O)Cn2c(=O)sc3cc(C(=O)c4ccccc4Cl)ccc32)n1`, the inhibition entry in the data set with Mus musculus [1], with Mus musculus [3], in the data set on Mus musculus [7] and with Mus musculus [8] was “inactive” throughout. The inhibition in data set [2] amounted to 28%; in data set [4] it was 9.84%; in data set [6], 2.21%. The inhibition in vivo at 100 mg/kg in the data set on Mus musculus [5] came to 15.9%. Further, in the data set on Mus musculus [9], the Activity entry is “Non-toxic”.
On to `O=C(Cn1c(=O)sc2cc(C(=O)c3ccccc3)ccc21)Nc1ccccn1`, for which the inhibition entry (in the data set on Mus musculus [1]; in data set [2]; in the data set on Mus musculus [3]; in the data set on Mus musculus [5]; in data set [6]; with Mus musculus [7]) was “inactive” in each case. Further, the inhibition result in the data set on Mus musculus [8] is “inactive”. For the same compound, the inhibition in data set [4] amounted to 49.8%. Further, the Activity entry in the data set with Mus musculus [9] is listed as “Non-toxic”.
On to `O=C(Cn1c(=O)sc2cc(C(=O)c3ccccc3F)ccc21)Nc1ccc(Cl)cc1`, for which the inhibition in vivo at 100 mg/kg amounted to 31.7% in the data set on Mus musculus [1]; 29% with Mus musculus [3]; 54.3% with Mus musculus [5]; 25.9% in the data set on Mus musculus [7]; 30.3% with Mus musculus [8]. The inhibition entry in data set [2] and in data set [6] was “inactive” in each case. In data set [4], this compound showed an inhibition of 10.4%. Also, in the data set with Mus musculus [9], the Activity result is “Non-toxic”.
